Data on 3 compounds can be found in ChEMBL document CHEMBL4619803, “Stepwise Design of γ-Secretase Modulators with an Advanced Profile by Judicious Coordinated Structural Replacements and an Unconventional Phenyl Ring Bioisostere” (J Med Chem, 2020).

Data set [1] relates to Mus musculus. In words: In vivo modulation of gamma secretase in APP-Swedish transgenic mouse assessed as reduction in Abeta42 production by measuring remaining Abeta42 level at 30 mg/kg, po measured after 4 hrs by ELISA or AlphaLISA assay relative to control. The format is functional.
In data set [2] the test system is Mus musculus. In words: In vivo modulation of gamma secretase in APP-Swedish transgenic mouse assessed as reduction in Abeta42 production by measuring remaining Abeta42 level at 10 mg/kg, po measured after 4 hrs by ELISA or AlphaLISA assay relative to control. Type of data set: functional.
A short description of data set [3]: Fraction unbound in human plasma. Type of data set: ADME, cell-free.
A short description of data set [4]: Fraction unbound in 10% fetal calf serum. The format is ADME, cell-free, Bos taurus. As to conditions: cattle.
Data set [5] relates to Mus musculus. In words: In vivo modulation of gamma secretase in po dosed APP-Swedish transgenic mouse assessed as reduction in total Abeta42 production level in brain administered as single dose by ELISA or AlphaLISA assay. The format is functional, organism-based. As to conditions: for pIC50: Mus musculus.
The test system of data set [6] is Mus musculus. In words: In vivo modulation of gamma secretase in APP-Swedish transgenic mouse assessed as reduction in Abeta42 production by measuring remaining Abeta42 level at 3 mg/kg, po measured after 4 hrs by ELISA or AlphaLISA assay relative to control. Type of data set: functional.
The target of data set [7] is Gamma-secretase (Homo sapiens) (UniProt Q96BI3+Q9NZ42+Q8WW43+P49768+Q92542+P49810). The data set is described as follows: (§1) Modulation of gamma secretase in human H4 cells over expressing human APP695 harboring K595N/M596L Swedish double mutant assessed as reduction in Abeta42 production after 24 hrs by Alphalisa assay. The format is cell-based.
Another data set concerns the target Gamma-secretase. The data set is described as §1. The format is cell-based.
The species named for data set [8] is Mus musculus. The data set is described as follows: (§2) Modulation of mouse gamma secretase assessed as reduction in Abeta42 production.
The nature of data set [9]: as §2.
Data set [10] can be described thus: Covalent protein binding in human liver microsomes assessed per mg protein in presence of NADPH. Type of data set: ADME, Microsome.
The nature of data set [11]: Fraction unbound in mouse plasma. Type of data set: ADME, cell-free.
For a further data set, the target named is hERG (KCNH2) (Homo sapiens, UniProt Q12809). In words: (§3) Inhibition of human ERG. Particulars: human.
Chain of hERG (KCNH2) (Q12809 whole entry): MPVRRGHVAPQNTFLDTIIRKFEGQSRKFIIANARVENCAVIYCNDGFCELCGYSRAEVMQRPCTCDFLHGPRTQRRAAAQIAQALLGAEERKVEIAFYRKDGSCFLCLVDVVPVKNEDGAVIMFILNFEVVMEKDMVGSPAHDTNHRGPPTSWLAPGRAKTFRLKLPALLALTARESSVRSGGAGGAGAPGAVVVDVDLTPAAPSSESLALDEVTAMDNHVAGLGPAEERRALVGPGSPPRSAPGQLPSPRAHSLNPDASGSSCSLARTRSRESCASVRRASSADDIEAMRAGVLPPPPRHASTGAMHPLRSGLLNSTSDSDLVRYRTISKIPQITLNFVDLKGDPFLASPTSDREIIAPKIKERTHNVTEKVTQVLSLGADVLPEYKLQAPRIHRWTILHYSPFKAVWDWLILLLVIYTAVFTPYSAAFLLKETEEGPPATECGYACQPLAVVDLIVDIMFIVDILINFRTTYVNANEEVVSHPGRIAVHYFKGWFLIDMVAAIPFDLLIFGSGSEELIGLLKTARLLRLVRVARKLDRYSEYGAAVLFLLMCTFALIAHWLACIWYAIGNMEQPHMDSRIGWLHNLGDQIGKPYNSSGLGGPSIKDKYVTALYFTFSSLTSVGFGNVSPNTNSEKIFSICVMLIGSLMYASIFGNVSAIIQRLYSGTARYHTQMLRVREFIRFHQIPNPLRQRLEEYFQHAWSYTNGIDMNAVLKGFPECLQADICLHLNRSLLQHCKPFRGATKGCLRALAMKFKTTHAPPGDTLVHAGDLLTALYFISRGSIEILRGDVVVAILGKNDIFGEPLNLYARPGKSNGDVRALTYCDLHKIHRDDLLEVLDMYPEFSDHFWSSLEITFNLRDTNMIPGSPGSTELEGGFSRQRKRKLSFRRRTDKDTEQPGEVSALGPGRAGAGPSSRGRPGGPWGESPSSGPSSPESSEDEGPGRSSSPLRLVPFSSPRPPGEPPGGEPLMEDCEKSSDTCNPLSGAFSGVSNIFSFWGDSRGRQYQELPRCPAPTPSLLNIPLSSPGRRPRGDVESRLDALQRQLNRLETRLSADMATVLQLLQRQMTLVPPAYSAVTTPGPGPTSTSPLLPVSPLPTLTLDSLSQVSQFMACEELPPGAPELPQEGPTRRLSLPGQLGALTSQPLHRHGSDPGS
In data set [12] the target is Voltage-gated inwardly rectifying potassium channel KCNH2 (Homo sapiens, UniProt Q12809). The description is as §3.
Chain of Voltage-gated inwardly rectifying potassium channel KCNH2 (Q12809 whole entry): as above
Data set [13] can be described thus: Octanol/water distribution co-efficient, log D of the compound at pH 7.4. The format is physicochemical.
Data set [14] addresses Phosphatidylinositol 4-kinase beta (Homo sapiens, UniProt Q9UBF8). The data set is described as follows: Binding affinity to PIK4CB (unknown origin). Type of data set: ADME.
The nature of data set [15]: Clearance in mouse hepatocytes assessed per million cells. The format is ADME, cell-based, Hepatocyte. As to conditions: read-out: CLH.
Data set [16] is described as follows: Clearance in human hepatocytes assessed per million cells. As to conditions: read-out: CLH. The format is ADME, cell-based, Hepatocyte.
Data set [17] is described as follows: Solubility of the compound in fasted state simulated intestinal fluid. Particulars: simulated gi fluid. The format is physicochemical.
Data set [18] is described as follows: Solubility in fed state simulated intestinal fluids. Particulars: simulated gi fluid. Type of data set: physicochemical.
The nature of data set [19]: Fraction unbound in rat plasma. The format is ADME, cell-free.
Data set [20] is described as follows: Solubility of compound by lyophilisation solubility assay. Type of data set: physicochemical.
Data set [21] in a line: Thermodynamic solubility of the compound. Type of data set: physicochemical.
The nature of data set [22]: Cytotoxicity against human embryonic stem cells assessed as reduction in cell viability. The format is cell-based.
Another data set concerns Melanocyte. In words: Phototoxicity in human Melanocytes in presence of UVA at 320 to 400 nm. Type of data set: cell-based. Particulars: light or radiation study.
Data set [23] in a line: Mutagenicity in Salmonella typhimurium by Ames test. Type of data set: toxicity. Particulars: salmonella enterica subsp. enterica serovar typhimurium.
Data set [24] in a line: Clearance in rat hepatocytes assessed per million cell. Type of data set: ADME, cell-based, Hepatocyte. As to conditions: read-out: CLH.
In the next data set the test system is Keratinocyte. In words: Phototoxicity in human Keratinocytes in presence of UVA at 320 to 400 nm. Type of data set: cell-based. As to conditions: light or radiation study.
Data set [25] in a line: Volume of distribution at steady state in rat at 1 mg/kg, iv bolus measured over 24 hrs. The format is ADME, organism-based. As to conditions: in vivo, read-out: Vdss.
A short description of data set [26]: Dose normalized AUC (infinity) in minipig at 3 mg/kg, po via gavage measured over 240 hrs. As to conditions: pig, in vivo. The format is ADME, organism-based, Sus scrofa domesticus.
A short description of data set [27]: Clearance in rat at 1 mg/kg, iv bolus measured over 24 hrs. The format is ADME, organism-based. Particulars: in vivo.
Data set [28] can be described thus: Volume of distribution at steady state in minipig at 1 mg/kg, iv bolus measured over 240 hrs. Particulars: pig, in vivo, read-out: Vdss. The format is ADME, organism-based, Sus scrofa domesticus.
The nature of data set [29]: Clearance in minipig at 1 mg/kg, iv bolus measured over 240 hrs. The format is ADME, organism-based, Sus scrofa domesticus. Particulars: pig, in vivo.
A short description of data set [30]: Terminal half life in minipig at 1 mg/kg, iv bolus measured over 240 hrs. The format is ADME, organism-based, Sus scrofa domesticus. As to conditions: pig, in vivo, read-out: beta t1/2 (converted).
A short description of data set [31]: Oral bioavailability in minipig at 3 mg/kg via gavage measured over 240 hrs. The format is ADME, organism-based, Sus scrofa domesticus. Particulars: pig, in vivo.
The nature of data set [32]: Dose normalized AUC (infinity) in rat at 2 mg/kg, po via gavage measured over 24 hrs. The format is ADME, organism-based. As to conditions: in vivo.
Data set [33] in a line: Oral bioavailability in rat at 2 mg/kg via gavage measured over 24 hrs. Particulars: in vivo. The format is ADME, organism-based.
Data set [34] is described as follows: Terminal half life in rat at 1 mg/kg, iv bolus measured over 24 hrs. The format is ADME, organism-based. As to conditions: in vivo, read-out: beta t1/2 (converted).

pIC50, pKd: −log10 of the molar value. Values after ≈ are worked out from the molar mass of the structure shown.

Chain of Phosphatidylinositol 4-kinase beta (Q9UBF8 whole entry): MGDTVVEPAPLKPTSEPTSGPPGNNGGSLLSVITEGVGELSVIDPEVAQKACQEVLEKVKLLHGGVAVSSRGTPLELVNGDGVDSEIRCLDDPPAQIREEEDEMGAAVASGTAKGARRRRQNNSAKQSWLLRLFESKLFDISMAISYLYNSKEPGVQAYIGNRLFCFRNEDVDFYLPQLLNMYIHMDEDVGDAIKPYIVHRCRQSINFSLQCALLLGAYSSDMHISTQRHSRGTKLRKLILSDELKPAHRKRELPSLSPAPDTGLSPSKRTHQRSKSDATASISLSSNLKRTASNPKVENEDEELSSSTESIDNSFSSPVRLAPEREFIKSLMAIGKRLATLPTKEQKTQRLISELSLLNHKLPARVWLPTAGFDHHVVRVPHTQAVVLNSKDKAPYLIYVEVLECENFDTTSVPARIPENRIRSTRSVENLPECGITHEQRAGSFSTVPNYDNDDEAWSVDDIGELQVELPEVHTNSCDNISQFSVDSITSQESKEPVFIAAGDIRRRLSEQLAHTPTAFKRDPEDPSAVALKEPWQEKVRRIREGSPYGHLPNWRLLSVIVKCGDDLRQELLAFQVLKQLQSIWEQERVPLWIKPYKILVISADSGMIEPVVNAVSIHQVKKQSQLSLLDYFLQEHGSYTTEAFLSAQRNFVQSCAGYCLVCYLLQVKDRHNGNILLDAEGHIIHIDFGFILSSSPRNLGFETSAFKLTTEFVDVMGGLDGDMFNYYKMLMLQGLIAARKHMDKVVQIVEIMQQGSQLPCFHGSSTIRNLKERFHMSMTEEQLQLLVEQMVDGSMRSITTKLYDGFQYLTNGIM

For the compound `Cc1nsc(N2CC[C@@H](Nc3nc4c(-c5ccc(F)c(F)c5F)cccn4n3)C(F)(F)C2)n1`, in the data set with Mus musculus [1], the Activity came to 31%. Also, the “remaining Abeta42 level (% of control)” value in the data set on Mus musculus [2] turned out to be 46%; with Mus musculus [6], 64%. Also, the fraction unbound in data set [3] is 0.0003; in [4] it was 0.06; in data set [11], 0.0029. Besides, the values for the fIC50 (in the data set on Mus musculus [5]; in data set [7]; in the data set filed under Mus musculus [8]) were 8 nM, 3.3 nM and 2.3 nM, respectively. Besides, the values for the negative logarithm of the IC50 (pIC50) (in the data set on Mus musculus [5]; at Gamma-secretase; in data set [9]) were 5.54, 7.26 and 7.42, respectively. Also, the PB in data set [10] worked out at 149 pmol.

Turning to `Cc1cc(N2C[C@H]3CC[C@@H](C2)[C@@H]3Nc2nc3c(OCC(F)F)ccc(C(F)(F)F)n3n2)ncn1`, at hERG (KCNH2), it took 1.4 µM to reach the 20% level (IC20). The pIC50 in [12] is 5.35; with Melanocyte, 4.51; at Gamma-secretase, 7.68; in the data set with Keratinocyte, 4.51; in [9], 7.96. This compound also had a logD in data set [13] of 3.9. In data set [14], this compound gave a pKd of 4.64. Further, the hepatocyte CLint in data set [15] came out at 9.4 µL/min/1e6 cells; in data set [16] it was 2.3 µL/min/1e6 cells; in data set [24] it was 5.8 µL/min/1e6 cells. Besides, the values for the fraction unbound in [3], in data set [19] and in data set [11] were 0.028, 0.01 and 0.017, respectively. For the same compound, the solubility in [17] was 13 µg/mL (≈ 26.9 µM); in [18], 466 µg/mL (≈ 964 µM); in data set [20] it was 88 µg/mL (≈ 182 µM). In addition, the Therm solubility in data set [21] came to 3 µg/mL. The Activity result in data set [22] and in data set [23] was “Non-Toxic” each time. Besides, the figures for the fIC50 (in data set [7]; in the data set listed under Mus musculus [8]) were 12 nM and 7 nM, respectively.

Turning to `Cc1nnc(N2C[C@H]3CC[C@@H](C2)[C@@H]3Nc2nc3c(O[C@@H](C)C(F)(F)F)ccc(C(F)(F)F)n3n2)o1`, it took 5.4 µM to reach the 20% level against hERG (KCNH2) (IC20). Besides, the negative-log IC50 (pIC50) in [12] is less than 4.70; in the data set on Mus musculus [5], 7.40; in the data set on Melanocyte, 4.60; on Gamma-secretase, 7.52; in the data set with Keratinocyte, 4.60; in [9] it was 7.68. Moreover, the results for the Vd in data set [25] and in [28] were 2.2 L/kg and 0.83 L/kg, respectively. In data set [13], the logD was 3.8 to 3.85. Moreover, the AUC/dose in [26] amounted to 1383 kg·ng·h/mL/mg; in [32], 1748 kg·ng·h/mL/mg. The clearance in data set [27] is 3.8 mL/min/kg; in [29] it was 3.35 mL/min/kg. This compound had a pKd in data set [14] of less than 4.40. The results for the hepatocyte CLint in data set [15], in [16] and in [24] were 3.4 µL/min/1e6 cells, 1.1 µL/min/1e6 cells and 6.3 µL/min/1e6 cells, respectively. The fraction unbound in [3] worked out at 0.05; in [19], 0.059; in data set [11], 0.043. Besides, the results for the solubility in [17], in [18] and in data set [20] were 234 µg/mL (≈ 463 µM), 390 µg/mL (≈ 772 µM) and 82 µg/mL (≈ 162 µM), respectively. For the same compound, the half-life in data set [30] is 6.7 h; in data set [34] it was 8.1 h. The Therm solubility in data set [21] was 85 µg/mL. In addition, the Activity result in [22] and in data set [23] was “Non-Toxic” in each case. In addition, the bioavailability in data set [31] turned out to be 27%; in [33], 33%. Besides, the fIC50 is 19 nM in data set [7] and 14 nM in the data set listed under Mus musculus [8].
